According to patent US20040014807A1, “Phenalenone derivatives, processes for preparation and use thereof” (priority 2002, published 2004):

How the values were obtained:
[1] = reaction with atmospheric oxygen (antioxidant action); format: physicochemical; conditions: in solution and in solid form
Source text: The compounds of the formula (I) can also be used as antioxidants. Antioxidants (oxidation inhibitors) are organic compounds which inhibit or prevent undesired changes in the substances to be protected caused by the effects of oxygen. Antioxidants are needed, for example, in plastics for protection against ageing, in fats for protection against rancidity, in oils against resinification, in aromatic substances against odor impairment, in foodstuffs, and in pharmaceuticals. The action of the antioxidants usually consists in acting as radical scavengers for the free radicals occurring in the oxidation. The antioxidative action of atrovenetin (compound of the formula (III)) has already been described by Y. Ishikawa et al. (J. Am. Oil Chem. Soc. 68, 666-668, 1991). Microbial antioxidants, however, are often too weak or not highly tolerable in their action. There is therefore a great need for novel, efficacious and tolerable antioxidants. […] This increased affinity of penilenone for oxygen, however, is decidedly advantageous for very oxidation-sensitive substances.

[2] = solubility (physicochemical properties)
Source text: (§1) The melting point is not determinable because of decomposition. Stable in mildly acidic medium under reducing conditions. Under the influence of oxygen, penilenone turns green in neutral medium or in the presence of amines.

Streptomyces murinus = experiment: agar diffusion test (antibiogram on solid nutrient plates with antibiotic diffusion); format: cell-based; conditions: agar plate containing Streptomyces murinus culture
Method: Moreover to be emphasized is an antimicrobial inhibitory action of the compounds of formula (I) according to the invention on bacteria, such as, for example, Staphylococcus aureus, Streptomyces murinus and against fungi, such as Aspergillus niger, which can cause stubborn, life-threatening infectious diseases. […] Thus, penilenone on an agar plate containing Streptomyces murinus culture in a solution of 1 mg per mL causes an inhibition halo of 11 mm and in a solution of 0.1 mg per mL an inhibition halo of 8 mm. The compounds of the formula (I) according to the invention are therefore likewise suitable for the treatment and/or prophylaxis of bacterial infections and/or fungal diseases (micosis or mycoses).

[3] = stability (physicochemical properties)
Source text: as §1

solubility in water ([2]; water) | stability ([3]; mildly acidic medium under reducing conditions) | behaviour under the influence of oxygen ([3]; neutral medium or in the presence of amines) | Structure (SMILES) | reaction with atmospheric oxygen [1] | solubility in organic solvents ([2]; medium polar and polar organic solvents) | inhibition halo (Streptomyces murinus; solution of 0.1 mg per mL) [mm] | inhibition halo (Streptomyces murinus; solution of 1 mg per mL) [mm]
– | – | – | Cc1cc(O)c2c3c(c(O)c4c(c13)OC(C)C4(C)C)C(O)=C(O)C2=O (centres unmarked) [atrovenetin, reference compound] | reacts only slowly with atmospheric oxygen | – | – | –
not very soluble in water | Stable | turns green | Cc1cc(O)c2c3c(c(O)cc(O)c13)C(O)=C(O)C2=O [penilenone] | combines with oxygen within seconds or in a few minutes | soluble in medium polar and polar organic solvents | 8 | 11
